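48-hour exposure; five concentrations; linearly interpolated endpoints. GI50: concentration for 50% inhibition of growth.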 Activity calls are given as the source filed them. No stated cut-off is given here; in the data, active = GI50 up to about 1.1 µM and inactive = higher.
Columns and labels:
Test in all cases: inhibition of tumour cell growth, NCI panel, 48 h
ACHN = test system: ACHN
COLO 205 = test system: COLO 205
T47D = test system: T47D
SF-295 = test system: SF-295
LOX IMVI = test system: LOX IMVI
EKVX = test system: EKVX
MDA-MB-231 = test system: MDA-MB-231
SK-MEL-28 = test system: SK-MEL-28
HOP-92 = test system: HOP-92
MCF7 = test system: MCF7
SNB-75 = test system: SNB-75
CCRF-CEM = test system: CCRF-CEM
MOLT-4 = test system: MOLT-4
OVCAR-4 = test system: OVCAR-4
A498 = test system: A498
CAKI-1 = test system: CAKI-1
TK-10 = test system: TK-10
786-0 = test system: 786-0
HT-29 = test system: HT-29
BT-549 = test system: BT-549

Measured: GI50

O=C1CC2CC(CC3(CO3)C2)C1F (stereo unspecified)
inactive: ACHN > 100 µM | COLO 205 > 100 µM | T47D > 100 µM | SF-295 > 100 µM | LOX IMVI > 100 µM | EKVX > 100 µM | MDA-MB-231 > 100 µM | SK-MEL-28 > 100 µM | HOP-92 23 µM | MCF7 > 100 µM | SNB-75 48.2 µM | CCRF-CEM > 100 µM | MOLT-4 > 100 µM | OVCAR-4 > 100 µM | A498 > 100 µM | CAKI-1 > 100 µM | TK-10 > 100 µM | 786-0 > 100 µM | HT-29 > 100 µM

CC(C)(C)[Si](C)(C)OCCC1CC2(S(=O)(=O)C3=CC=C=C=C3)ON1CC2S(=O)(=O)c1ccccc1 (stereo unspecified)
inactive: ACHN > 10 µM | COLO 205 > 10 µM | T47D > 10 µM | SF-295 > 10 µM | BT-549 > 10 µM | EKVX > 10 µM | MDA-MB-231 > 10 µM | SK-MEL-28 > 10 µM | MCF7 > 10 µM | SNB-75 > 10 µM | CCRF-CEM 2.56 µM | MOLT-4 > 10 µM | OVCAR-4 > 10 µM | A498 > 10 µM | TK-10 > 10 µM | 786-0 > 10 µM | HT-29 > 10 µM

O=C(NCP(=O)(Oc1ccccc1)Oc1ccccc1)OCc1ccccc1
inactive: ACHN 80.5 µM | COLO 205 > 100 µM | T47D > 100 µM | SF-295 42.2 µM | BT-549 > 100 µM | LOX IMVI > 100 µM | EKVX > 100 µM | SK-MEL-28 > 100 µM | HOP-92 38.7 µM | MCF7 > 100 µM | SNB-75 32 µM | CCRF-CEM > 100 µM | MOLT-4 > 100 µM | OVCAR-4 45.3 µM | CAKI-1 > 100 µM | TK-10 > 100 µM | 786-0 53.2 µM | HT-29 > 100 µM

O=C(O)[C@H]1[C@@H](C2CCCCC2)O[C@@H](C2CCCCC2)O[C@H]1C(F)(F)F
inactive: ACHN 18.7 µM | COLO 205 20.4 µM | T47D 30.5 µM | SF-295 19.1 µM | BT-549 33.2 µM | LOX IMVI 19.9 µM | EKVX 21.4 µM | MDA-MB-231 18.2 µM | SK-MEL-28 19.4 µM | HOP-92 18.8 µM | SNB-75 18.7 µM | CCRF-CEM 22.8 µM | MOLT-4 21.6 µM | OVCAR-4 36.2 µM | A498 19 µM | CAKI-1 20.5 µM | TK-10 60.1 µM | 786-0 17.8 µM | HT-29 22.6 µM

COc1cc2[nH]c(=O)c3cc(C)cc4c(Cl)nc(c1OC)c2c43
inactive: ACHN 40.6 µM | COLO 205 72.6 µM | SF-295 43.7 µM | BT-549 35 µM | LOX IMVI 53.2 µM | EKVX 18.1 µM | MDA-MB-231 76.6 µM | SK-MEL-28 > 100 µM | HOP-92 35.9 µM | MCF7 32.9 µM | SNB-75 22.9 µM | CCRF-CEM 27.9 µM | MOLT-4 42.8 µM | OVCAR-4 > 100 µM | CAKI-1 56.2 µM | TK-10 31.2 µM | 786-0 20 µM | HT-29 89.9 µM

COc1ccc(OC)c(-c2nc(O)c3ccccc3n2)c1
inactive: ACHN > 100 µM | COLO 205 > 100 µM | T47D 25.6 µM | SF-295 > 100 µM | BT-549 > 100 µM | EKVX > 100 µM | MDA-MB-231 > 100 µM | MCF7 > 100 µM | SNB-75 > 100 µM | CCRF-CEM > 100 µM | MOLT-4 40.6 µM | OVCAR-4 > 100 µM | A498 > 100 µM | CAKI-1 > 100 µM | 786-0 > 100 µM | HT-29 > 100 µM

COc1ccccc1C(=O)NO
inactive: ACHN > 100 µM | COLO 205 > 100 µM | T47D > 100 µM | SF-295 > 100 µM | BT-549 > 100 µM | LOX IMVI > 100 µM | EKVX > 100 µM | MDA-MB-231 > 100 µM | SK-MEL-28 > 100 µM | MCF7 > 100 µM | SNB-75 > 100 µM | CCRF-CEM > 100 µM | MOLT-4 > 100 µM | OVCAR-4 > 100 µM | CAKI-1 > 100 µM | TK-10 > 100 µM | 786-0 > 100 µM | HT-29 > 100 µM

COc1cccc(-c2cc(O)c3cc(NC(C)=O)ccc3n2)c1
inactive: ACHN > 100 µM | COLO 205 22.4 µM | BT-549 > 100 µM | LOX IMVI 22.5 µM | EKVX 53 µM | MDA-MB-231 31.4 µM | SK-MEL-28 33.2 µM | HOP-92 8.17 µM | MCF7 5.65 µM | CCRF-CEM 5.6 µM | MOLT-4 5.27 µM | A498 17 µM | CAKI-1 62.1 µM | TK-10 > 100 µM | 786-0 28.9 µM | HT-29 22 µM

Source: ChEMBL document CHEMBL1201862, “PubChem BioAssay data set” (2004)
